Values of other authors as cited in patent publication US10258598B2, “Compounds for use in the prevention or treatment of cancer” ([…], priority 2014, dated 2019).
Where a name gives a salt, the structure may show the parent alone.

Tested on: norepinephrine and dopamine stores in catecholaminergic neurons in the brain stem
Conditions: 1 mg/kg s.c.; cited from earlier work

## COc1cc2c(cc1OC)C1CC(=O)C(CC(C)C)CN1CC2 (stereo not shown) [Tetrabenazine, Tetrabenazine HCl]
  depletion of norepinephrine and dopamine from their stores: at least 90%
